# From patent publication EP0096569A2, “Triazole antifungal agents” (Pfizer Limited, priority 1982, dated 1983)
# System: Candida albicans
# Experiment: in vivo evaluation in mice inoculated with Candida albicans (protection against lethal infection, PD50)
# Parameters: unit not given beside the values
# Settings: oral, dose level giving 50% protection against the lethal effect of the infection
# Experimental: The in vivo evaluation of the compounds can be carried out at a series of dose levels by intraperitoneal or intravenous injection or by oral administration, to mice which are inoculated with a strain of Candida albicans. Untreated mice die within 48 hours and the dose level at which the compound provides 50% protection against the lethal effect of the infection (PDSO) is noted.
# Activity Data in mice (oral PD50 values)
row,SMILES,PD50
1,"Clc1ccc(C(Cl)(Cn2cncn2)Cn2cncn2)c(Cl)c1 [Product of Example 1, 1,3-Bis-(1H-1,2,4-triazol-1-yl)-2-chloro-2-(2,4-dichlorophenyl) propane]",0.1
2,"Clc1ccc(C(Br)(Cn2cncn2)Cn2cncn2)c(Cl)c1 [Product of Example 2, 1,3-Bis(lH-1,2,4-triazol-1-yl)-2-bromo-2-(2,4-dichlorophenyl) propane]",0.03
3,"Fc1ccc(C(Br)(Cn2cncn2)Cn2cncn2)c(F)c1 [Product of Example 3, 1,3-Bis(1H-1,2,4-triazol-1-yl)-2-bromo-2-(2,4-difluorophenyl)propane]",0.3
4,"FC(Cn1cncn1)(Cn1cncn1)c1ccc(Cl)cc1Cl [Product of Example 4, 1,3-Bis(1H-1,2,4-triazol-1-yl)-2-(2,4-dichlorophenyl)-2-fluoro-propane]",1.8
5,Fc1cc(C(Cl)(Cn2cncn2)Cn2cncn2)c(F)cc1Br [Product of Example 5],1.6
6,Fc1ccc(C(Cl)(Cn2cncn2)Cn2cncn2)c(F)c1 [Product of Example 6],0.9
7,ClC(Cn1cncn1)(Cn1cncn1)c1ccc(I)cc1 [Product of Example 7],0.2
8,Clc1ccc(C(Cl)(Cn2cncn2)Cn2cncn2)cc1 [Product of Example 8],0.3
9,"Clc1ccc(C(Cl)(Cn2cncn2)Cn2cncn2)nc1 [Product of Example 9, 1,3-Bis(1A-1,2,4-triazol-1-yl)-2-chloro-2-(5-chloropyrid-2-yl)propane]",0.2
